Assay results: patent publication US20120157471A1, “BENZIMIDAZOLE DERIVATIVES” (PFIZER INC., priority 2009, published 2012)
pIC50: −log10 of the molar value. Counter-ions that a name gives are not always drawn.

Experiments:
[1] = molecular target: T1, human Smo (amino acids 181-787) (Homo sapiens, UniProt Q99835); test: Smo radioligand competition binding assay (displacement of 3H-PF-03451358 from HEK293 membranes); settings: for inhibition at 0.05 µM: 0.05 μM test compound, displacement of 3H-PF-03451358, read-out: SMO % inh. @ 0.05 μM; for pIC50: radioligand competition binding
T1 construct: expressed in transfected cells; membrane preparation
T1 sequence (Q99835 181-787): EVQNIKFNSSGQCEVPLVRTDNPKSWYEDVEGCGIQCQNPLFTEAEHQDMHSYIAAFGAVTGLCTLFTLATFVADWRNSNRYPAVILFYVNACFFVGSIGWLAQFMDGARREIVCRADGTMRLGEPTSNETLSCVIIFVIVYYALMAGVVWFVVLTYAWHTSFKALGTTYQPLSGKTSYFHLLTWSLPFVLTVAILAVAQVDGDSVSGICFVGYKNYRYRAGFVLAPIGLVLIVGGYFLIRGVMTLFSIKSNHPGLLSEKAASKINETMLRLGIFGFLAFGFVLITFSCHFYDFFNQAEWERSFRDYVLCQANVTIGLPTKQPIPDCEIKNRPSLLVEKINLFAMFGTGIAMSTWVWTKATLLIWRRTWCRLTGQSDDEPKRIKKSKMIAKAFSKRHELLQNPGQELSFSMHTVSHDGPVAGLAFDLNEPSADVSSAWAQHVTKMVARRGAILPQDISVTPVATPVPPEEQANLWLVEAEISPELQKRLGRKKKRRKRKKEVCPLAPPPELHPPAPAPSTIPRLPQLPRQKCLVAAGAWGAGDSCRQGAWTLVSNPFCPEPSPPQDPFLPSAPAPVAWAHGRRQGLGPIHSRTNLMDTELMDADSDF
Experimental: Membranes were prepared from a stable cell line created in HEK293FlpIn-TetR cells (Invitrogen) using FIp recombinase-mediated insertion of the pSecTag-FRT/V5-His vector containing a cDNA encoding amino acids 181-787 of human Smo fused to the murine lgk leader sequence to produce a cell surface expressed Smo 181-781 protein. Hygromycin-resistant clones were obtained and stained for LacZ expression (no expression indicates a correct knock-in of my fusion cDNA). LacZ-negative cells were analyzed for binding tritiated Smo antagonist PF-03451358. For membrane preparation, the HEK293 cells expressing Smo 181-781 were grown to 90% confluence in nine to fifteen 245 mm×245 mm×22 mm dishes, washed with Dulbecco's PBS (15 ml per dish) and harvested via scraping in 10 ml of DPBS. The cells were collected and centrifuged at 1500 rpm (400×g) for 10 min at 4° C. The cell pellets were re-suspended in 40 ml of cold DPBS and washed by centrifugation at 2300 rpm (950×g max) for 10 minutes at 4° C. The supernatant was aspirated and the cell pellet was snap frozen in a methanol/dry ice bath and stored at −70° C. For membrane preparation, 15 ml of Membrane Preparation Buffer (50 mM Tris-HCl pH 7.5, 250 mM sucrose with Roche complete protease cocktail tablets) is added to the tube containing the cell pellet, then cells are rapidly thawed, and homogenized using an Ultra-Turrax T8 (IKA Labortechnik) set on “6” for 15 seconds for 5-6 times in icy water bath. This homogenate was diluted up to 50 ml using Membrane Preparation Buffer and centrifuged at 35,000 rpm in a Beckman Ti45 rotor (140,000×g) for 35 minutes at 4° C. followed by aspiration of the supernatant and re-suspension of the pellet in 5 ml of Assay Buffer (50 mM Tris-HCl pH 7.5, 100 mM NaCl, 25 mM MgCl2, 1 mM EDTA, and 0.1% protease free bovine serum albumin). The re-suspended pellet is then homogenized in a glass tissue grinder. The re-suspended membranes are aliquoted (0.5 ml aliquots), snap frozen and stored at −70° C. Total protein in the membrane preparation is determined using the Pierce BCA protein assay (Pierce Chemical).
For the binding competition assay, 100 μl of Assay Buffer is added to all the wells of a 96 well GF/B filter plate (Millipore MultiScreen-HTS-FB cat# MSFBN6B50) for 10 minutes to pre-wet the filter prior to evacuation of the buffer (8 inches Hg for 8 seconds). To the pre-wet wells is added: 20 μl of Assay Buffer, 10 μl diluted test agent, 20 μl of ^3H-PF-3451358 (15 nM stock solution), and 50 μl of membrane preparation (40 μg total protein per well). The plates are sealed and mixed at room temperature for 5 min, incubated at room temperature for 2 hours, then washed 5 times with 100 μl/each of wash buffer and vacuum dried for 8 seconds at 8 inch Hg. The plate is then dried for one hour in a 60° C. oven prior to the addition of 45 μl of Microscint 20 (Packard, #6013621) to each well and incubation at RT for 30 minutes to 1 hour. The plate is counted in a TopCount scintillation counter (Perkin Elmer).
Data analysis uses Excel for % Inhibition and Graphpad Prism for IC50 calculation. Total binding (TB, in the absence of inhibitors)=average of ^3H PF-03451358 3 nM+SMO membrane (40 μg/wells (approx 5000-7000 CPM). Non-specific binding (NSB)=average of ^3H PF-03451358 (3 nM)+cold PF-03451358 (30 μM)+SMO membrane (approx 600-1200 CPM). Specific binding (SB)=(total binding−non-specific binding). % Inhibition=[1−(compound Specific binding/control Specific binding)]×100%. IC50 is calculated by fitting the data to the four parameter sigmoidal dose-response curve (variable slope) Y=Bottom+(Top-Bottom)/(1+10̂((LogEC50−X)*HillSlope)). X is the logarithm of the inhibitor concentration. Y is the response; Y starts at Bottom and goes to Top with a sigmoid shape.

Gli-Luc/MEF cells (Smo) = test: Gli-Luc/MEF assay (Shh-stimulated luciferase reporter under the Gli response element); format: cell-based, mouse
Experimental: The Gli-Luc/MEF cells obtained from Gli-Luc transgenic mice (Pfizer CoE, Genetically Modified Mice) contain a luciferase reporter gene under the control of the Gli response element. Luciferase activity stimulated with Sonic hedgehog ligand was inhibited by Smo inhibitors, and IC50 was subsequently calculated.
Plates were incubated at 37° C. and 5% CO2 overnight. On day two, cells were dosed with test compounds at a final concentration ranging from […] to 50 μM at a 3-time series dilution. Immediately after dosing cells with compounds, recombinant mouse sonic hedgehog (Shh, R&D Systems 464-SH) was added to a final concentration of 2 μg/mL. The cells were incubated with compounds and Shh for 48 hours at 37° C. and 5% CO2. Luciferase assays were conducted on Day 4 using the Bright-Glo Luciferase assay system (Promega E2620) according to Promega's protocol. Briefly, Bright-Glo luciferase reagent was made up and 25 uL were added to each well of the 384-well plate containing media. Plates were kept at room temperature for 5 minutes, and then read on an Envision Luminescence plate reader (Perkin-Elmer). IC50 of the inhibition was calculated by using GraphPad Prism.

Compound | inhibition at 0.05 µM [1] | pIC50 [1] | pIC50 (Gli-Luc/MEF cells (Smo); 48 hours) | pIC50 (Gli-Luc/MEF cells (Smo); Mus musculus, MEF, 48 h)
Cn1c(-c2cc(N3CCN(CCS(C)(=O)=O)CC3)ncc2Cl)nc2ccccc21 [Example A-206, 2-(5-chloro-2-{4-[2-(methylsulfonyl)ethyl]piperazin-1-yl}pyridin-4-yl)-1-methyl-1H-benzimidazole] | 99% | 7.77 | 7.77 | 
CN1CC2(CCN(c3cc(-c4nc5ccccc5n4C)c(Cl)cn3)CC2)CC1=O [Example A-77, 8-[5-chloro-4-(1-methyl-1H-benzimidazol-2-yl)pyridin-2-yl]-2-methyl-2,8-diazaspiro[4.5]decan-3-one] | 92% | 7.54 |  | 7.82
Cn1c(-c2cc(N3CCn4cnnc4C3)ncc2Cl)nc2ccccc21 [Example A-109, 7-[5-chloro-4-(1-methyl-1H-benzimidazol-2-yl)pyridin-2-yl]-5,6,7,8-tetrahydro[1,2,4]triazolo[4,3-a]pyrazine] | 75% | 6.89 |  | 6.85
Cn1c(-c2cc(N3CC(c4ncccn4)C3)ncc2Cl)nc2ccccc21 [Example A-131, 2-[5-chloro-2-(3-pyrimidin-2-ylazetidin-1-yl)pyridin-4-yl]-1-methyl-1H-benzimidazole] | 52% |  |  | 6.79
Cn1c(-c2cc(N3CCC(O)(CN4CCCC4=O)C3)ncc2Cl)nc2ccccc21 (stereo not drawn) [Example A-136, 1-({1-[5-chloro-4-(1-methyl-1H-benzimidazol-2-yl)pyridin-2-yl]-3-hydroxypyrrolidin-3-yl}methyl)pyrrolidin-2-one] | 46% |  |  | 
Cn1c(-c2cc(N3CCC(O)(c4ncccn4)C3)ncc2Cl)nc2ccccc21 (stereo not drawn) [Example A-140, 1-[5-chloro-4-(1-methyl-1H-benzimidazol-2-yl)pyridin-2-yl]-3-pyrimidin-2-ylpyrrolidin-3-ol] | 42% |  |  | 
Cc1nccn1CC1(O)CCN(c2cc(-c3nc4ccccc4n3C)c(Cl)cn2)C1 (stereo not drawn) [Example A-135, 1-[5-chloro-4-(1-methyl-1H-benzimidazol-2-yl)pyridin-2-yl]-3-[(2-methyl-1H-imidazol-1-yl)methyl]pyrrolidin-3-ol] | 46% |  |  | 
Cn1c(-c2nc(N3CCNCC3)ccc2Cl)nc2ccccc21 [Example B-1, 2-(3-chloro-6-piperazin-1-ylpyridin-2-yl)-1-methyl-1H-benzimidazole formate salt] | 59% |  |  | 
COC(=O)N1CCN(c2nccc(-c3nc4ccccc4n3C)n2)CC1 [Example C-6, Methyl 4-[4-(1-methyl-1H-benzimidazol-2-yl)pyrimidin-2-yl]piperazine-1-carboxylate] | 27% |  |  | 
Cn1c(-c2ccnc(N3CCN(S(C)(=O)=O)CC3)n2)nc2ccccc21 [Example C-4, 1-Methyl-2-{2-[4-(methylsulfonyl)piperazin-1-yl]pyrimidin-4-yl}-1H-benzimidazole] | 45% |  |  | 
Cn1c(-c2cc(NCCN)ncc2Cl)nc2ccccc21 [Example A-142, N-[5-chloro-4-(1-methyl-1H-benzimidazol-2-yl)pyridin-2-yl]ethane-1,2-diamine] | 44% |  |  | 
Cn1cnnc1C1CCCN(c2cc(-c3nc4ccccc4n3C)c(Cl)cn2)C1 (stereo not drawn) [Example A-138, 2-{5-chloro-2-[3-(4-methyl-4H-1,2,4-triazol-3-yl)piperidin-1-yl]pyridin-4-yl}-1-methyl-1H-benzimidazole] | 45% |  |  | 
Cn1c(-c2cc(N3CCC(C(=O)O)CC3)ncc2Cl)nc2ccccc21 [Example A-7, 1-[5-chloro-4-(1-methyl-1H-benzimidazol-2-yl)pyridin-2-yl]piperidine-4-carboxylic acid] | 39% |  |  | 
CC(=O)N1CCN(c2nccc(-c3nc4ccccc4n3C)n2)CC1 [Example C-2, 2-[2-(4-Acetylpiperazin-1-yl)pyrimidin-4-yl]-1-methyl-1H-benzimidazole] | 65% | 6.35 |  | 
Cn1c(-c2cc(NCCS(C)(=O)=O)ncc2Cl)nc2ccccc21 [Example A-167, 5-chloro-4-(1-methyl-1H-benzimidazol-2-yl)-N-[2-(methylsulfonyl)ethyl]pyridin-2-amine] | 64% | 6.54 |  | 
COC1CCN(c2cc(-c3nc4cccnc4n3C)c(Cl)cn2)CC1 [Example A-38, 2-[5-chloro-2-(4-methoxypiperidin-1-yl)pyridin-4-yl]-3-methyl-3H-imidazo[4,5-b]pyridine] | 51% | 6.33 |  | 
Cn1c(-c2cc(N3CC(c4cccnn4)C3)ncc2Cl)nc2ccccc21 [Example A-139, 2-[5-chloro-2-(3-pyridazin-3-ylazetidin-1-yl)pyridin-4-yl]-1-methyl-1H-benzimidazole] | 42% |  |  | 
Cn1c(-c2cc(N3CC(c4ncc[nH]4)C3)ncc2Cl)nc2ccccc21 [Example A-133, 2-{5-chloro-2-[3-(1H-imidazol-2-yl)azetidin-1-yl]pyridin-4-yl}-1-methyl-1H-benzimidazole] | 48% |  |  | 
CC(=O)NC1CCN(c2cc(-c3nc4ccccc4n3C)c(Cl)cn2)C1 (stereo in doubt) [Example A-134, N-{(3S)-1-[5-chloro-4-(1-methyl-1H-benzimidazol-2-yl)pyridin-2-yl]pyrrolidin-3-yl}acetamide] | 48% |  |  | 
CC(=O)N1CCN(c2cc(-c3nc4cccnc4n3C)c(Cl)cn2)CC1 [Example A-40, 2-[2-(4-acetylpiperazin-1-yl)-5-chloropyridin-4-yl]-3-methyl-3H-imidazo[4,5-b]pyridine] | 66% | 6.80 |  | 
CN(CCN)c1cc(-c2nc3ccccc3n2C)c(Cl)cn1 [Example A-184, N-[5-chloro-4-(1-methyl-1H-benzimidazol-2-yl)pyridin-2-yl]-N-methylethane-1,2-diamine] | 50% | 6.47 |  | 
Cn1c(-c2cc(N3CCC(S(C)(=O)=O)CC3)ncc2Cl)nc2cccnc21 [Example A-37, 2-{5-chloro-2-[4-(methylsulfonyl)piperidin-1-yl]pyridin-4-yl}-3-methyl-3H-imidazo[4,5-b]pyridine] | 67% | 6.61 |  | 
CN1CCN(C2COCCN(c3cc(-c4nc5ccccc5n4C)c(Cl)cn3)C2)CC1 (stereo not drawn) [Example A-137, 2-{5-chloro-2-[6-(4-methylpiperazin-1-yl)-1,4-oxazepan-4-yl]pyridin-4-yl}-1-methyl-1H-benzimidazole] | 45% |  |  | 
